Publication PMC3597608, “Yellow Fluorescent Protein-Based Assay to Measure GABAA Channel Activation and Allosteric Modulation in CHO-K1 Cells” (PLoS ONE, 2013)
Where two headings read alike, the source gives them in different places.

Legend:
[1] = system: GABA α2β3γ2; design: method as in PMID 14680756, PMID 16183706; settings: mouse fibroblast L(tk−) cells; cited from earlier work
[2] = biological target: T1, human GABAA α2β3γ2 (Homo sapiens, UniProt P18507+P28472+P47869); assay: cell-based; assay type: cell-based
T1 construct: expressed in transfected cells; host or cells: CHO-K1 (ATCC, CCL-61), transient electroporation with MaxCyte STX, cryopreserved assay-ready cells
Description: The cDNA of YFP (Genbank accession number AY818378) with H148Q and I152L mutations was inserted into the pcDNA3.1 vector using 5′ BamHI and 3′ NotI sites. Human GABAA subunits α2, β3 and γ2 (Genbank accession numbers; α2 NM_000807, β3 NM_000814, γ2 NM_000816) were inserted into pGen-IRES-neo2 vectors using NotI 5′ and 3′ sites.
CHO-K1 cell line (ATCC, CCL-61) was cultured in Ham's F-12 medium supplemented with 10% fetal bovine serum and incubated at 37°C and 5% CO2. Transient transfection was performed using MaxCyte STX electroporation instrument (MaxCyte, Inc.) with CHO cell line specific electroporation protocol. The cells were split one day prior to electroporation to ensure that cells were in the log phase growth at time of transfection. Cells were harvested with Accutase (PAA Laboratories), pelleted at 250 g for 10 minutes, rinsed with MaxCyte Electroporation Buffer (MaxCyte, Inc.), pelleted again and resuspended in MaxCyte Electroporation Buffer at a density of 1×10^8 cells/ml. CHO-K1 cells were electroporated simultaneously with four plasmids using a total amount of 300 µg DNA per 1×10^8 cells; YFP-H148Q/I152L (150 µg) and GABAA (72.5 µg α2, […] and 72.5 µg γ2) plasmids. Following electroporation, cells were incubated at 37°C and 5% CO2 for 20 minutes to recover. Cells were then diluted in culture medium and centrifuged 250 g for 10 minutes. Pelleted cells were resuspended to 5–10×10^6 cells/ml in Ham's F12 with 20% fetal bovine serum and 10% DMSO, and cryopreserved using controlled-rate cryo containers (Nalgene, Thermo Scientific). Cryopreserved assay-ready cells were used for all experiments.
Cryopreserved transiently transfected cells were thawed and plated in 384-well poly-D-lysine-coated plates at a density of 15000 cells/well using a Multidrop Combi Reagent Dispenser (Thermo Scientific). After 24 h incubation at 37°C and 5% CO2, cells were washed three times on an ELx405 Select Deep Well Microplate Washer (BioTEK), exchanging 50 µl culture medium with 30 µl HBSS buffer supplemented with 20 mM Hepes. Plates were incubated with buffer for 1 h at 37°C and 5% CO2. Cell plates were assayed on a FLIPR Tetra (Molecular Devices) using excitation filter of 470–495 nm and emission filter of 515–575 nm. Starting with 30 µl buffer in each well, cells were pre-incubated with 10 µl compound for 15 minutes. […] Compounds were initially solubilized to a concentration of 10 mM in DMSO and then diluted in HBSS buffer with 20 mM Hepes. Final DMSO concentration in the assay was 0.02% for modulators and at 1% for Picrotoxin and Bicuculline.
Data at 1–10 s was adjusted to a baseline of 100% and results were then extracted as % quench at 120 s. % quench is defined as (Finit – Ffinal)/Finit*100 where Finit and Ffinal are the initial and final values of fluorescence respectively. […] Curve fits were performed using least-squares fitting routine (GraphPad Prism 5, GraphPad Software Inc.).
The 95% confidence interval was calculated as 2× this standard error. Taking the anti-log converts this to a fold change (ratio) between two EC50 values.

[3] = system: α2β3γ2 ion channel subtype; design: method as in PMID 19090692; settings: VSD assay; cited from earlier work
[4] = 1 µM modulator, p<0.05, difference in pEC50 ≥0.15 significant

T1 sequence (P47869 29-451): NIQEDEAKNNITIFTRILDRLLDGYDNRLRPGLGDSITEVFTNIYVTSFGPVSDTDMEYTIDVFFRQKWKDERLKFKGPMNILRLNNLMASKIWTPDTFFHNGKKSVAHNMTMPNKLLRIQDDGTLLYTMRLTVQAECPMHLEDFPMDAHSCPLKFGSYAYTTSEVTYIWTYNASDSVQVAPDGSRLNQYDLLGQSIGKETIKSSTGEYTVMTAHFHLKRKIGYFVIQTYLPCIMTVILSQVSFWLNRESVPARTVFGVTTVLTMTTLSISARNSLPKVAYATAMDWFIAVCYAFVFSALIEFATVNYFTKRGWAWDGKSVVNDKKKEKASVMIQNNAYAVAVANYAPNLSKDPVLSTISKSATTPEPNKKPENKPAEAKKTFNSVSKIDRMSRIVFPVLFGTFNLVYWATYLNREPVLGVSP
T1 sequence (P28472 26-473): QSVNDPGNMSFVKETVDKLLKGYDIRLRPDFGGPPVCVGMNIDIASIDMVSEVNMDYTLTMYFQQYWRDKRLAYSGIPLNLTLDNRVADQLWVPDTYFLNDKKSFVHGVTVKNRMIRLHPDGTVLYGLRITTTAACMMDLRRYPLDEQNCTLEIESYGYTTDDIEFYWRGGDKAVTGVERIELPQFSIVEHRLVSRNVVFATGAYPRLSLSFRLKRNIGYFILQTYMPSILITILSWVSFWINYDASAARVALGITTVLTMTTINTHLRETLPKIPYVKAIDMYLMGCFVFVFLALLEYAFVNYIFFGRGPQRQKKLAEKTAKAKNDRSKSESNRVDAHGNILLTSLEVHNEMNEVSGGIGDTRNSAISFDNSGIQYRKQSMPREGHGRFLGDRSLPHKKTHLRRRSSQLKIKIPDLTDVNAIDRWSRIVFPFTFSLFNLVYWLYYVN
T1 sequence (P18507 40-467 isoform P18507-1 limits assumed): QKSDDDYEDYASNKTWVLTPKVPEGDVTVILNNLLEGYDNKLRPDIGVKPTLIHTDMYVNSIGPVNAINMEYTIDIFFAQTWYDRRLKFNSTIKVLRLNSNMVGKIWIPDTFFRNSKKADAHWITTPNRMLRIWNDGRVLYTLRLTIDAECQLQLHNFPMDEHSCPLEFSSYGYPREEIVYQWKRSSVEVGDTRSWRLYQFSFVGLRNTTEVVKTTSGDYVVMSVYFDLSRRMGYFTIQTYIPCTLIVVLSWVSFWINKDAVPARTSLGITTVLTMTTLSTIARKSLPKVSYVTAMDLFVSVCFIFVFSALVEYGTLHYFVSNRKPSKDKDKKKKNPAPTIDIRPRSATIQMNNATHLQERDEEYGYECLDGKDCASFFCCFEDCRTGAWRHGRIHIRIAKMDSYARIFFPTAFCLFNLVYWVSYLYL

## Cn1ncnc1COc1nn2c(-c3cc(F)ccc3F)nnc2cc1C(C)(C)C [L-838417]
[1]
  relative in vitro efficacy, potentiation of GABA EC20 compared to 100% response from chlordiazepoxide: 34%
[2]; 1 µM modulator, 95% confidence
  allosteric effect on GABA: not able to detect any significant allosteric modulation
[2]; [4]
  Significance 95% confidence of pEC50 difference vs GABA alone: non-significant
[3]
  modulation of GABA signal: detected modulation of GABA signal

## Picrotoxin
[2]; 100 µM, 15 min prior to buffer with different I− concentrations
  effect on basal (agonist-independent) YFP quench: reduced basal quench to background levels
[2]; 1 mM, EC80 of GABA in 10 mM NaI buffer
  effect on YFP quench in cells activated with EC80 of GABA: blocked YFP quench

## CN1C(=O)CN=C(c2ccccc2)c2cc(Cl)ccc21 [Diazepam]
[2]
  GABA EC50 shift: 1.7 fold
  Significance 95% confidence of pEC50 difference vs GABA alone: Significant difference
  allosteric effect on GABA: significant positive allosteric effect
  modulation of GABA EC20 quench: significant increase
[3]
  pEC50 difference (GABA with modulator vs GABA alone): 0.41

## CN1C(=O)CC(=O)N(c2ccccc2)c2cc(Cl)ccc21 [Clobazam]
[2]; 1 µM modulator, 95% confidence
  allosteric effect on GABA: significant positive allosteric effect
[2]; [4]
  Significance 95% confidence of pEC50 difference vs GABA alone: Significant difference

## CCn1ncnc1COc1nn2c(-c3ccccc3F)nnc2cc1C(C)(C)C [TPA-023, 7-(1,1-dimethylethyl)-6-(2-ethyl-2H-1,2,4-triazol-3-ylmethoxy)-3-(2-fluorophenyl)-1,2,4-triazolo z[4,3-b]pyridazine]
[1]
  relative in vitro efficacy, potentiation of GABA EC20 compared to 100% response from chlordiazepoxide: 11%
[2]; 1 µM modulator, 95% confidence
  allosteric effect on GABA: not able to detect any significant allosteric modulation
[2]; [4]
  Significance 95% confidence of pEC50 difference vs GABA alone: non-significant
[2]; EC20 of GABA with 1 µM modulator, 10 mM I−
  modulation of GABA EC20 quench: No significant change

## CN1CCc2cc3c(cc2[C@H]1[C@@H]1OC(=O)c2c1ccc1c2OCO1)OCO3 [Bicuculline]
[2]
  IC50: 2140 nM

## O=C1CC(=O)N(c2ccccc2)c2cc(Cl)ccc2N1 [Desmethyl-clobazam]
[2]; [4]
  Significance 95% confidence of pEC50 difference vs GABA alone: non-significant

## O=C1Nc2ccc(Cl)cc2C(c2ccccc2Cl)=NC1O (centres unmarked) [Lorazepam]
[2]; 1 µM modulator, 95% confidence
  allosteric effect on GABA: significant positive allosteric effect
[2]; [4]
  Significance 95% confidence of pEC50 difference vs GABA alone: Significant difference

## CCCN(CCC)C(=O)Cc1c(-c2ccc(Cl)cc2)nc2ccc(Cl)cn12 [Alpidem]
[2]; 1 µM modulator, 95% confidence
  allosteric effect on GABA: significant positive allosteric effect
[2]; [4]
  Significance 95% confidence of pEC50 difference vs GABA alone: Significant difference
